Assays:
Format in all cases: biochemical
[1] = molecular target: FGFR1 (Homo sapiens (Human), UniProt P11362); assay: FGFR enzymatic assay (FRET peptide phosphorylation), FGFR1; details: FGFR1 enzyme 0.02 nM, ATP 210 μM
How it was run: (§1)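 Recombinant kinase was pre-incubated 5–10 min with serially diluted inhibitor in HEPES buffer (10 mM MgCl2, 5 mM DTT, pH 7.5; buffer described for FGFR3). Peptide phosphorylation ran 1 h at 25 °C and was detected by FRET after ~1 h equilibration. IC50 values come from variable-slope sigmoidal fits.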

[2] = molecular target: FGFR2 (Homo sapiens (Human), UniProt P21802); assay: FGFR enzymatic assay (FRET peptide phosphorylation), FGFR2; details: FGFR2 enzyme 0.01 nM, ATP 100 μM
Chain of FGFR2 (P21802 22-821): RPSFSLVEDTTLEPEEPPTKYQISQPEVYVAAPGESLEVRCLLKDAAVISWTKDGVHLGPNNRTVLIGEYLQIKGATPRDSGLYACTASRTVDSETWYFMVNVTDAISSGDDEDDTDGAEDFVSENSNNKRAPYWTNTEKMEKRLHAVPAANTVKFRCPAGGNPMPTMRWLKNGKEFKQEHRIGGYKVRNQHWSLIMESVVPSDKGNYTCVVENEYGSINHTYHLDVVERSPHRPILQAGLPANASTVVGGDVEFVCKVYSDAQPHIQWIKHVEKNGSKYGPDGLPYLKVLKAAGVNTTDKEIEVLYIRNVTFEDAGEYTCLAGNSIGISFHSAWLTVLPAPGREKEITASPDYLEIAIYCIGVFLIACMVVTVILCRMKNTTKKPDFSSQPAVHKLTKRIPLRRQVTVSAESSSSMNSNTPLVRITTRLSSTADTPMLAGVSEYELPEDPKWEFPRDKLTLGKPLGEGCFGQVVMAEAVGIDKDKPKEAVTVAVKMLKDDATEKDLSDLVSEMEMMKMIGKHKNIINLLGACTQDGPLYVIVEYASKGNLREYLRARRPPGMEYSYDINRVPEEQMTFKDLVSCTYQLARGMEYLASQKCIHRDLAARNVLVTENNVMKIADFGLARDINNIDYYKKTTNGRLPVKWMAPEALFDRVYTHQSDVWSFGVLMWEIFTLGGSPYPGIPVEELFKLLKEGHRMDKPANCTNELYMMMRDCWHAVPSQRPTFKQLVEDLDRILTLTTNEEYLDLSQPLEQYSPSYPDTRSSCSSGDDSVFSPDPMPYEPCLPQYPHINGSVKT
How it was run: as §1

[3] = molecular target: FGFR3 (Homo sapiens (Human), UniProt P22607); assay: FGFR enzymatic assay (FRET peptide phosphorylation), FGFR3; details: FGFR3 enzyme (Millipore), ATP 140 μM
Chain of FGFR3 (P22607 23-806): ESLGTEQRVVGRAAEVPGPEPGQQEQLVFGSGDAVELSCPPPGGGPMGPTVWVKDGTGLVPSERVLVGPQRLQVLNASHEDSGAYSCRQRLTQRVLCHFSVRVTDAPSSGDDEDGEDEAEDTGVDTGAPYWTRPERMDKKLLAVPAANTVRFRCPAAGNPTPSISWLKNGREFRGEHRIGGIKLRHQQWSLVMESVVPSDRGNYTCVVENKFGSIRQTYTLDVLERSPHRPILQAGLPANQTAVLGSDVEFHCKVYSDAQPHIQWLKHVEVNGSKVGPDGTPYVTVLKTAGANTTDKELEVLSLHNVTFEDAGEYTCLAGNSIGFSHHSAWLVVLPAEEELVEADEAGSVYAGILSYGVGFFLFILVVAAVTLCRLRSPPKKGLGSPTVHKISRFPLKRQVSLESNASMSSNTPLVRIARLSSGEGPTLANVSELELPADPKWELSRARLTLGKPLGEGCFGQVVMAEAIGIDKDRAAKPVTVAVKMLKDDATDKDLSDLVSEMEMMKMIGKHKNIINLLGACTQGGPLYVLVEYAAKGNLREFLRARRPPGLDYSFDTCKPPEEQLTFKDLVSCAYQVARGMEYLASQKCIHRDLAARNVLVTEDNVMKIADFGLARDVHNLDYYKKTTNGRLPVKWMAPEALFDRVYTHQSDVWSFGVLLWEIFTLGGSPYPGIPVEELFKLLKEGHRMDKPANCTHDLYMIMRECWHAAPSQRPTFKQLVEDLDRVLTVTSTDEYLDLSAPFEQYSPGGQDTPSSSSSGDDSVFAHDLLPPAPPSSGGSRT
How it was run: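 FRET assay of peptide phosphorylation by FGFR3 in HEPES pH 7.5 buffer with MgCl2, EGTA, Tween-20 and DTT. Enzyme was pre-incubated 5-10 min with compound, and the reaction ran 1 hr at 25° C. IC50 came from a variable-slope sigmoidal fit.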

Measured: IC50

Chain of FGFR1 (P11362 22-822): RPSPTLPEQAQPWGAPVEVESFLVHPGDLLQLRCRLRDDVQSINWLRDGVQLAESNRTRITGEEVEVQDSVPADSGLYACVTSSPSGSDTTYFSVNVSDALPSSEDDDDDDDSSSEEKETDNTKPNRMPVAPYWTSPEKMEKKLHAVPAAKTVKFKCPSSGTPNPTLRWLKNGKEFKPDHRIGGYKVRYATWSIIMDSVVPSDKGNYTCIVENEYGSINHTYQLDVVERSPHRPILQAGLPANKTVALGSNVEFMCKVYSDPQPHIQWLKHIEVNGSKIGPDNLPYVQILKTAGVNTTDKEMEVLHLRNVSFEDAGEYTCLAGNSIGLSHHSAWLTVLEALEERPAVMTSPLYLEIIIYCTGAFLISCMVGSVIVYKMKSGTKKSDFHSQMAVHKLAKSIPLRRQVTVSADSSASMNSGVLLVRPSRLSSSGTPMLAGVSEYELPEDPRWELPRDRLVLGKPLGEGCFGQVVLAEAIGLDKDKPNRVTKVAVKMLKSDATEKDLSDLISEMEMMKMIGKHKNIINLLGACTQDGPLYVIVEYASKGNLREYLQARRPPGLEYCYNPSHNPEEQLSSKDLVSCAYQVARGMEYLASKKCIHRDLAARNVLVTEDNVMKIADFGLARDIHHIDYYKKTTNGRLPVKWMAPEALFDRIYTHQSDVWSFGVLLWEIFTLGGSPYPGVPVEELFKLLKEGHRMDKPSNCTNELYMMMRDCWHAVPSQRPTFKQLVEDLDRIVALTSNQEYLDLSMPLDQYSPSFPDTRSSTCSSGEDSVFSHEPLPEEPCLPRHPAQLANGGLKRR

COc1cc(OC)c(F)c(N2Cc3cnc4[nH]c(CN5CC(F)C5)cc4c3C(C)(C)C2=O)c1F [Example 207, 7-(2,6-difluoro-3,5-dimethoxyphenyl)-2-[(3-fluoroazetidin-1-yl)methyl]-9,9-dimethyl-3,6,7,9-tetrahydro-8H-pyrrolo[2,3-c]-2,7-naphthyridin-8-one]
< 100 nM: all assays above

COc1cc(OC)c(F)c(N2Cc3cnc4[nH]c(CCN5CCN(C)CC5)cc4c3N(c3cccc(F)c3F)C2=O)c1F [Example 223, 3-(2,6-difluoro-3,5-dimethoxyphenyl)-1-(2,3-difluorophenyl)-8-[2-(4-methylpiperazin-1-yl)ethyl]-1,3,4,7-tetrahydro-2H-pyrrolo[3′,2′:5,6]pyrido[4,3-d]pyrimidin-2-one]
< 100 nM: all assays above

COc1cc(OC)c(F)c(N2Cc3cnc4[nH]ccc4c3N(C3CCOCC3)C2=O)c1F [Example 46, 3-(2,6-Difluoro-3,5-dimethoxyphenyl)-1-(tetrahydro-2H-pyran-4-yl)-1,3,4,7-tetrahydro-2H-pyrrolo[3′,2′:5,6]pyrido[4,3-d]pyrimidin-2-one]
< 100 nM: all assays above

COc1cc(OC)c(F)c(N2Cc3cnc4ccsc4c3N(C)C2=O)c1F [Example 38, 3-(2,6-Difluoro-3,5-dimethoxyphenyl)-1-methyl-3,4-dihydrothieno[2′,3′:5,6]pyrido[4,3-d]pyrimidin-2(1H)-one]
< 100 nM: all assays above

COc1cc(OC)c(F)c(N2Cc3cnc4c(c3N(C3CCC3)C2=O)CC(=O)N4)c1F [Example 64, 1-cyclobutyl-3-(2,6-difluoro-3,5-dimethoxyphenyl)-3,4,7,9-tetrahydro-1H-pyrrolo[3′,2′:5,6]pyrido[4,3-d]pyrimidine-2,8-dione]
< 100 nM: all assays above

COc1cc(OC)c(F)c(N2Cc3cnc4[nH]ccc4c3N(CCO)C2=O)c1F [Example 44, 3-(2,6-Difluoro-3,5-dimethoxyphenyl)-1-(2-hydroxyethyl)-1,3,4,7-tetrahydro-2H-pyrrolo[3′,2′:5,6]pyrido[4,3-d]pyrimidin-2-one]
< 100 nM: all assays above

CCN1C(=O)N(c2c(F)c(OC)cc(OC)c2F)Cc2cnc3[nH]ccc3c21 [Example 121, 3-(2,6-Difluoro-3,5-dimethoxyphenyl)-1-ethyl-1,3,4,7-tetrahydro-2H-pyrrolo[3′,2′:5,6]pyrido[4,3-d]pyrimidin-2-one]
< 100 nM: all assays above

COc1cc(OC)c(Cl)c(N2Cc3cnc4[nH]c(-c5cnn(CCO)c5)cc4c3N(C)C2=O)c1 [Example 14, 3-(2-Chloro-3,5-dimethoxyphenyl)-8-[1-(2-hydroxyethyl)-1H-pyrazol-4-yl]-1-methyl-1,3,4,7-tetrahydro-2H-pyrrolo[3′,2′:5,6]pyrido[4,3-d]pyrimidin-2-one]
< 100 nM: all assays above

COc1cc(OC)c(F)c(N2Cc3cnc4c(c3N(c3ccc(Cl)cc3F)C2=O)CC(=O)N4)c1F [Example 68, 1-(4-chloro-2-fluorophenyl)-3-(2,6-difluoro-3,5-dimethoxyphenyl)-3,4,7,9-tetrahydro-1H-pyrrolo[3′,2′:5,6]pyrido[4,3-d]pyrimidine-2,8-dione]
< 100 nM: all assays above

COc1cc(OC)c(F)c(N2Cc3cnc4[nH]cnc4c3N(C)C2=O)c1F [Example 61, 7-(2,6-difluoro-3,5-dimethoxyphenyl)-9-methyl-3,6,7,9-tetrahydro-8H-imidazo[4′,5′:5,6]pyrido[4,3-d]pyrimidin-8-one]
< 100 nM: all assays above

COc1cc(OC)c(F)c(N2Cc3cnc4[nH]ncc4c3NC2=O)c1F [Example 99, 3-(2,6-difluoro-3,5-dimethoxyphenyl)-1,3,4,7-tetrahydro-2H-pyrazolo[4′,3′:5,6]pyrido[4,3-d]pyrimidin-2-one]
< 100 nM: all assays above

COc1cc(OC)c(F)c(N2Cc3cnc4[nH]ncc4c3N(c3nnn(C)n3)C2=O)c1F [Example 95, 3-(2,6-difluoro-3,5-dimethoxyphenyl)-1-(2-methyl-2H-tetrazol-5-yl)-1,3,4,7-tetrahydro-2H-pyrazolo[4′,3′:5,6]pyrido[4,3-d]pyrimidin-2-one]
< 100 nM: all assays above

COc1cc(CN2C(=O)N(c3c(F)c(OC)cc(OC)c3F)Cc3cnc4[nH]ncc4c32)ccn1 [Example 177, 3-(2,6-difluoro-3,5-dimethoxyphenyl)-1-[(2-methoxypyridin-4-yl)methyl]-1,3,4,7-tetrahydro-2H-pyrazolo[4′,3′:5,6]pyrido[4,3-d]pyrimidin-2-one]
< 100 nM: all assays above

COc1cc(OC)c(F)c(N2Cc3cnc4[nH]c(CCc5ccccn5)cc4c3N(C)C2=O)c1F [Example 140, 3-(2,6-difluoro-3,5-dimethoxyphenyl)-1-methyl-8-(2-pyridin-2-ylethyl)-1,3,4,7-tetrahydro-2H-pyrrolo[3′,2′:5,6]pyrido[4,3-d]pyrimidin-2-one]
< 100 nM: all assays above

COc1cc(OC)c(Cl)c(N2Cc3cnc4[nH]ccc4c3N(c3cnn(C)c3)C2=O)c1F [Example 107, 3-(2-chloro-6-fluoro-3,5-dimethoxyphenyl)-1-(1-methyl-1H-pyrazol-4-yl)-1,3,4,7-tetrahydro-2H-pyrrolo[3′,2′:5,6]pyrido[4,3-d]pyrimidin-2-one]
< 100 nM: all assays above

COc1cc(OC)c(F)c(N2Cc3cnc4[nH]ccc4c3N(c3cccc(C#N)c3)C2=O)c1F [Example 82, 3-[3-(2,6-difluoro-3,5-dimethoxyphenyl)-2-oxo-2,3,4,7-tetrahydro-1H-pyrrolo[3′,2′:5,6]pyrido[4,3-d]pyrimidin-1-yl]benzonitrile]
< 100 nM: all assays above

COc1cc(OC)c(F)c(N2Cc3cnc4[nH]ncc4c3N(CCc3cnccn3)C2=O)c1F [Example 168, 3-(2,6-Difluoro-3,5-dimethoxyphenyl)-1-(2-pyrazin-2-ylethyl)-1,3,4,7-tetrahydro-2H-pyrazolo[4′,3′:5,6]pyrido[4,3-d]pyrimidin-2-one]
< 100 nM: all assays above

COc1cc(OC)c(F)c(N2Cc3cnc4[nH]c(C(=O)N5CC(O)C5)cc4c3N(C)C2=O)c1 [Example 28, 3-(2-Fluoro-3,5-dimethoxyphenyl)-8-[(3-hydroxyazetidin-1-yl)carbonyl]-1-methyl-1,3,4,7-tetrahydro-2H-pyrrolo[3′,2′:5,6]pyrido[4,3-d]pyrimidin-2-one]
< 100 nM: all assays above

COc1cc(OC)c(F)c(N2Cc3cnc4[nH]c(CNC5CCN(C)CC5)cc4c3N(C)C2=O)c1F [Example 134, 3-(2,6-difluoro-3,5-dimethoxyphenyl)-1-methyl-8-{[(1-methylpiperidin-4-yl)amino]methyl}-1,3,4,7-tetrahydro-2Hpyrrolo[3′,2′:5,6]pyrido[4,3-d]pyrimidin-2-one]
< 100 nM: all assays above

COc1cc(OC)c(F)c(N2Cc3cnc4[nH]ncc4c3N(C[C@H]3CCCO3)C2=O)c1F [Example 166, 3-(2,6-Difluoro-3,5-dimethoxyphenyl)-1-[(2R)-tetrahydrofuran-2-ylmethyl]-1,3,4,7-tetrahydro-2H-pyrazolo[4′,3′:5,6]pyrido[4,3-d]pyrimidin-2-one]
< 100 nM: all assays above

CCN1CCN(Cc2cc3c4c(cnc3[nH]2)CN(c2c(F)c(OC)cc(OC)c2F)C(=O)N4C2CC2)CC1 [Example 188, 1-cyclopropyl-3-(2,6-difluoro-3,5-dimethoxyphenyl)-8-[(4-ethylpiperazin-1-yl)methyl]-1,3,4,7-tetrahydro-2H-pyrrolo[3′,2′:5,6]pyrido[4,3-d]pyrimidin-2-one]
< 100 nM: all assays above

COc1cc(OC)c(F)c(N2Cc3cnc4[nH]c(CCN5CCOCC5)cc4c3C(C)(C)C2=O)c1F [Example 158, 7-(2,6-difluoro-3,5-dimethoxyphenyl)-9,9-dimethyl-2-(2-morpholin-4-ylethyl)-3,6,7,9-tetrahydro-8H-pyrrolo[2,3-c]-2,7-naphthyridin-8-one]
< 100 nM: all assays above

COc1cc(OC)c(F)c(N2Cc3cnc4[nH]c(CN5CCN(CCO)CC5)cc4c3N(C)C2=O)c1F [Example 130, 3-(2,6-difluoro-3,5-dimethoxyphenyl)-8-{[4-(2-hydroxyethyl)piperazin-1-yl]methyl}-1-methyl-1,3,4,7-tetrahydro-2H-pyrrolo[3′,2′:5,6]pyrido[4,3-d]pyrimidin-2-one]
< 100 nM: all assays above

COc1cc(OC)c(F)c(N2Cc3cnc4[nH]nc(CCO)c4c3N(C)C2=O)c1F [Example 56, 3-(2,6-Difluoro-3,5-dimethoxyphenyl)-9-(2-hydroxyethyl)-1-methyl-1,3,4,7-tetrahydro-2H-pyrazolo[4′,3′:5,6]pyrido[4,3-d]pyrimidin-2-one]
< 100 nM: all assays above

Source: patent US9611267B2, “Substituted tricyclic compounds as FGFR inhibitors” (Incyte Corporation, priority 2012, dated 2017)
